The results in this text go back to patent US12048693B2, “Substituted halo-quinoline derivatives, method of preparation and applications thereof” (Institut National de la Sante et de la Recherche Medicale …, priority 2018, dated 2024).

Data set [1] has as its system A549. In words: Cancer cell viability, trypan blue exclusion assay. The data set is classed as cell-based. Conditions: Homo sapiens, normalized to DMSO-treated control. How it is done: (§1) Cancer Cell Proliferation Assay (A375, A549, PC3, HT-29, MiaPaca-2 and MCF-7)
(§2) The tested cancer cells are the following: human melanoma cells (A375), lung carcinoma cells (A549), prostate cancer cells (PC3), colon adenocarcinoma (HT29), pancreas carcinoma (MiaPaca 2) and breast carcinoma (MCF-7).
(§3) Cells were counted using a Malassez chamber. The average and standard deviation were calculated from triplicate experiments. Antiproliferative effects were evaluated by trypan blue exclusion assay. Briefly, cells were seeded into 12-well plate and grown in media supplemented with indicated compound at 1 or 10 μM for 48 h or 96 h. Cells were washed with PBS and detached by trypsinization, collected and colored by trypan blue.
(§4) As a comparison, cell viability was also determined and calculated as follow: Viability (%)=100−[(dead cell number/total cells)*100].

The subject of data set [2] is HT29. The data set can be described thus: Cancer cell viability, trypan blue exclusion assay. The format is cell-based. Conditions: Homo sapiens, HT-29, normalized to DMSO-treated control. How it is done: as §1, §2, §3, §4
Data set [3] concerns MCF-7. The data set can be described thus: Cancer cell viability, trypan blue exclusion assay. The data set is classed as cell-based. Conditions: Homo sapiens, MCF7, normalized to DMSO-treated control. How it is done:
as §1, §2, §3, §4

The subject of data set [4] is MiaPaca-2. In words: Cancer cell viability, trypan blue exclusion assay. The format is cell-based. Conditions: Homo sapiens, MIA PaCa-2, normalized to DMSO-treated control. How it is done: as §1, §2, §3, §4
In data set [5] the test system is PC3. In words: Cancer cell viability, trypan blue exclusion assay. The data set is classed as cell-based. Conditions: Homo sapiens, PC-3, normalized to DMSO-treated control. The protocol: as §1, §2, §3, §4
Data set [6] concerns PC3. In words: Cancer cell proliferation assay. The data set is classed as cell-based, human. Conditions: 10 μM, normalized to DMSO-treated control. The protocol: as §1, §2, §3
Dead and living cells were counted and proliferation was calculated as follow: Proliferation (%)=[(treated cell number/untreated cells number)*100].

The test system of data set [7] is melanoma cell line A375. In words: In vitro dose response study on A375 proliferation. The data set is classed as cell-based. Conditions: Homo sapiens, A-375, 96 h, graded concentration. The protocol:
The melanoma cell line A375 was treated during 96 h with graded concentration of compounds 42 and 43. At the end of the culture period, the cell concentration was determined.

For data set [8], the system named is A375. The data set can be described thus: Cancer cell viability, trypan blue exclusion assay. The data set is classed as cell-based. Conditions: Homo sapiens, A-375, normalized to DMSO-treated control. How it is done:
as §2
Cells were counted using a Malassez chamber. The average and standard deviation were calculated from triplicate experiments. Antiproliferative effects were evaluated by trypan blue exclusion assay. […] Cells were washed with PBS and detached by trypsinization, collected and colored by trypan blue.
as §4

Data set [9] can be described thus: Melanocyte viability assay (MHN). The data set is classed as cell-based. Conditions: human, MHN melanocytes, 10 μM for 96 h, normalized to DMSO-treated control, read-out: Heathly Cell Viability MHN. How it is done:
Melanocyte Viability Assay (MHN)
Cell viability effects were evaluated by trypan blue exclusion assay. Briefly, cells were seeded into 12-well plate and grown in media supplemented with indicated compound at 10 μM for 96 h. Cells were washed with PBS and detached by trypsinization, collected and colored by trypan blue. Dead and living cells were counted and cell viability was calculated as follow: Viability (%)=100−[(dead cell number/total cells)*100].

For orientation: viability means a per cent measure of how many cells are alive, often set against a control. As a reminder, the IC50 is the concentration at which inhibition is half-maximal. A high value points to weaker potency. Turning to `COc1ccc(Nc2ccnc3cc(Cl)ccc23)cc1O` [Compound 43, 7-chloro-N-(3-(hydroxy)-4-(methoxy)phenyl)quinolin-4-amine], the viability at 10 µM worked out at 99.8% in data set [1]; 85.8% in data set [2]; 99.6% in [3]; 97.6% in data set [4]; 94.6% in [5]. For the same molecule, the “Cancer Cell Proliferation” value in data set [6] was 55.0%. Half-maximal inhibition in data set [7] (IC50) was put at 1830 nM.
For the molecule `COCCOc1ccc(Nc2ccnc3cc(Cl)ccc23)cc1` [Compound 42, 7-chloro-N-(4-(2-methoxyethoxy)phenyl)quinolin-4-amine], the viability at 10 µM amounted to 99.3% in data set [8]; 99.7% in data set [1]; 97.3% in data set [2]; 97.2% in data set [3]; 100% in data set [4]; 98.9% in [5]. In addition, the viability at 96 h, 10 μM in data set [9] is 99%. This molecule also yielded an IC50 in [7] of 420 nM.
